From ChEMBL document CHEMBL3286182, “4-aminoquinolone piperidine amides: noncovalent inhibitors of DprE1 with long residence time and potent antimycobacterial activity” (J Med Chem, 2014)
In brackets after ≈: the same amount, converted by molar mass.

Tests used:
Format in all cases: functional
[1] = system: Mycobacterium tuberculosis; assay: Antimycobacterial activity against BTZ043-resistant Mycobacterium tuberculosis over expressing DprE1 C387S mutant after 5 days by standard microdilution method
[2] = system: Mycobacterium tuberculosis; assay: Antimycobacterial activity against Mycobacterium tuberculosis over expressing DprE1 Y314H mutant after 5 days by standard microdilution method
[3] = system: Mycobacterium tuberculosis; assay: Antimycobacterial activity against TMC207R-resistant Mycobacterium tuberculosis clone 8.1 over expressing DprE1 mutant after 5 days by standard microdilution method
[4] = system: Mycobacterium tuberculosis; assay: Antimycobacterial activity against moxifloxacin-resistant Mycobacterium tuberculosis clone 4.1 over expressing DprE1 mutant after 5 days by standard microdilution method

COc1c(N2C[C@@H]3CCCN[C@@H]3C2)c(F)cc2c(=O)c(C(=O)O)cn(C3CC3)c12 [MOXIFLOXACIN]
MIC [1]: 0.08 µM (≈ 0.0321 µg/mL)

Cn1ncc(C(=O)N2[C@@H]3CC[C@H]2C[C@@H](Nc2cc(=O)[nH]c4ccc(F)cc24)C3)c1Cl
MIC [2]: <0.39 µM | MIC [1]: 1.56 µM (≈ 0.671 µg/mL)

COc1nc2ccc(Br)cc2cc1[C@@H](c1ccccc1)[C@@](O)(CCN(C)C)c1cccc2ccccc12 [BEDAQUILINE]
MIC [3]: 50 µM (≈ 27.8 µg/mL) | MIC [1]: 0.4 µM (≈ 0.222 µg/mL) | MIC [4]: 1.6 µM (≈ 0.889 µg/mL)

Cn1ncc(C(=O)N2CCC(Nc3cc(=O)[nH]c4ccccc34)CC2)c1Cl
MIC [2]: 100 µM (≈ 38.6 µg/mL) | MIC [3]: 3.1 µM (≈ 1.2 µg/mL) | MIC [1]: 100 µM (≈ 38.6 µg/mL) | MIC [4]: 1.6 µM (≈ 0.617 µg/mL)

NNC(=O)c1ccncc1 [ISONIAZID]
MIC [3]: 0.23 µM (≈ 0.0315 µg/mL) | MIC [1]: 0.45 µM (≈ 0.0617 µg/mL) | MIC [4]: 0.45 µM (≈ 0.0617 µg/mL)

Cn1ncc(C(=O)N2CCC(Nc3cc(=O)[nH]c4cc(F)c(F)cc34)CC2)c1Cl
MIC [2]: 50 µM (≈ 21.1 µg/mL) | MIC [3]: 0.2 µM (≈ 0.0844 µg/mL) | MIC [1]: 3.12 µM (≈ 1.32 µg/mL) | MIC [4]: 0.2 µM (≈ 0.0844 µg/mL)

C[C@H]1COC2(CCN(c3nc(=O)c4cc(C(F)(F)F)cc([N+](=O)[O-])c4s3)CC2)O1 [BTZ-043]
MIC [3]: 0.002 µM (≈ 0.000863 µg/mL) | MIC [1]: 25 µM (≈ 10.8 µg/mL) | MIC [4]: 0.003 µM (≈ 0.00129 µg/mL)

Cc1onc(C(=O)N2CCC(Nc3cc(=O)n(C)c4cc(F)c(F)cc34)CC2)c1C
MIC [2]: <25 µM | MIC [1]: 6.25 µM (≈ 2.6 µg/mL)

Cn1ncc(C(=O)N2CCC(Nc3cc(=O)[nH]c4ccc(F)cc34)CC2)c1Cl
MIC [2]: 25 µM (≈ 10.1 µg/mL) | MIC [3]: 1.6 µM (≈ 0.646 µg/mL) | MIC [1]: 25 µM (≈ 10.1 µg/mL) | MIC [4]: 1.6 µM (≈ 0.646 µg/mL)

C[C@H]1C[C@H](Nc2cc(=O)[nH]c3cc(F)c(F)cc23)CCN1C(=O)c1cnn(C)c1Cl
MIC [2]: 0.78 µM (≈ 0.34 µg/mL) | MIC [1]: 6.25 µM (≈ 2.72 µg/mL)
